Results as given in patent publication US20260262643A1, “HERBICIDAL BENZOXAZINES” (FMC CORPORATION, priority 2022, published 2026).

Columns and labels:
blackgrass [1] = experiment: Test C preemergence; type: in vivo, Alopecurus myosuroides; conditions: 0 to 100 scale (0 no effect, 100 complete control); for Plant response rating, Blackgrass: Preemergence, 500 g ai/ha, visual rating after 10 days; for Blackgrass plant response rating: Test C, preemergence, 125 g ai/ha
Method in brief: (§1)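 Seeds in loam–sand blend received preemergence directed soil spray of test chemicals in non-phytotoxic solvent with surfactant; postemergence treatment was applied at one- to two-leaf stage (2–10 cm). After 10 days in greenhouse, injury rated visually versus untreated controls, 0 (no effect) to 100 (complete control).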

soybean [2] = experiment: Test C postemergence; type: in vivo, Glycine max; conditions: 10 days
Method in brief: as §1

horseweed = experiment: Test C postemergence; type: in vivo, Erigeron canadensis; conditions: 10 days
Method in brief: as §1

rice = experiment: Test D flooded paddy test; type: in vivo, Oryza sativa; conditions: 250 g ai/ha, applied to paddy water, visual rating after 13 to 14 days, scale 0 to 100 (0 no effect, 100 complete control)
Method in brief: (§2)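 At the 2-leaf stage, floodwater 3 cm deep received the test compound; that depth persisted throughout. Plants scored visually 13 to 14 days on, 0 (no effect) to 100 (complete control), dash indicating no result.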

barnyardgrass [3] = experiment: Test C preemergence; type: in vivo, Echinochloa crusgalli; conditions: 0 to 100 scale (0 no effect, 100 complete control); for Barnyardgrass plant response rating: 125 g ai/ha, preemergence; for Plant response rating, Barnyardgrass: Preemergence, 500 g ai/ha, visual rating after 10 days
Method in brief: as §1

sedge, umbrella = experiment: Test D flooded paddy test; type: in vivo, Cyperus difformis; conditions: 250 g ai/ha, applied to paddy water, visual rating after 13 to 14 days, scale 0 to 100 (0 no effect, 100 complete control)
Method in brief: as §2

corn [4] = experiment: Test C postemergence; type: in vivo, Zea mays; conditions: 10 days
Method in brief: as §1

soybean [5] = experiment: Test C preemergence; type: in vivo, Glycine max; conditions: 0 to 100 scale (0 no effect, 100 complete control); for Plant response rating, Soybean: Preemergence, 500 g ai/ha, visual rating after 10 days; for Soybean plant response rating: Test C, preemergence, 125 g ai/ha
Method in brief: as §1

pigweed, palmer [6] = experiment: Test C preemergence; type: in vivo, Amaranthus palmeri; conditions: 0 to 100 scale (0 no effect, 100 complete control); for Plant response rating, Pigweed, Palmer: Preemergence, 500 g ai/ha, visual rating after 10 days; for Pigweed, Palmer plant response rating: Test C, preemergence, 125 g ai/ha
Method in brief: as §1

galium = experiment: Test C postemergence; type: in vivo, Galium aparine; conditions: 10 days
Method in brief: as §1

green foxtail [7] = experiment: Test C preemergence; type: in vivo, Setaria viridis; conditions: 0 to 100 scale (0 no effect, 100 complete control); for Plant response rating, Foxtail, Green: Preemergence, 500 g ai/ha, visual rating after 10 days; for Foxtail, Green plant response rating: Test C, preemergence, 125 g ai/ha
Method in brief: as §1

oat, wild [8] = experiment: Test C postemergence; type: in vivo, Avena fatua; conditions: 10 days
Method in brief: as §1

ryegrass, Italian [9] = experiment: Test C preemergence; type: in vivo, Lolium multiflorum; conditions: 0 to 100 scale (0 no effect, 100 complete control); for Plant response rating, Ryegrass, Italian: Preemergence, 500 g ai/ha, visual rating after 10 days; for Ryegrass, Italian plant response rating: Test C, preemergence, 125 g ai/ha
Method in brief: as §1

wheat [10] = experiment: Test C preemergence; type: in vivo, Triticum aestivum; conditions: 0 to 100 scale (0 no effect, 100 complete control); for Plant response rating, Wheat: Preemergence, 500 g ai/ha, visual rating after 10 days; for Wheat plant response rating: Test C, preemergence, 125 g ai/ha
Method in brief: as §1

ducksalad = experiment: Test D flooded paddy test; type: in vivo, Heteranthera limosa; conditions: 250 g ai/ha, applied to paddy water, visual rating after 13 to 14 days, scale 0 to 100 (0 no effect, 100 complete control)
Method in brief: as §2

pigweed, palmer [11] = experiment: Test C postemergence; type: in vivo, Amaranthus palmeri; conditions: 10 days
Method in brief: as §1

barnyardgrass [12] = experiment: Test C postemergence; type: in vivo, Echinochloa crusgalli; conditions: 10 days
Method in brief: as §1

wheat [13] = experiment: Test C postemergence; type: in vivo, Triticum aestivum; conditions: 10 days
Method in brief: as §1

ragweed [14] = experiment: Test C preemergence; type: in vivo, Ambrosia artemisiifolia; conditions: 0 to 100 scale (0 no effect, 100 complete control); for Plant response rating, Ragweed: Preemergence, 500 g ai/ha, visual rating after 10 days; for Ragweed plant response rating: Test C, preemergence, 125 g ai/ha
Method in brief: as §1

green foxtail [15] = experiment: Test C postemergence; type: in vivo, Setaria viridis; conditions: 10 days
Method in brief: as §1

ryegrass, Italian [16] = experiment: Test C postemergence; type: in vivo, Lolium multiflorum; conditions: 10 days
Method in brief: as §1

oat, wild [17] = experiment: Test C preemergence; type: in vivo, Avena fatua; conditions: 0 to 100 scale (0 no effect, 100 complete control); for Plant response rating, Oat, Wild: Preemergence, 500 g ai/ha, visual rating after 10 days; for Oat, Wild plant response rating: Test C, preemergence, 125 g ai/ha
Method in brief: as §1

kochia [18] = experiment: Test C preemergence; type: in vivo, Bassia scoparia; conditions: 0 to 100 scale (0 no effect, 100 complete control); for Plant response rating, Kochia: Preemergence, 500 g ai/ha, visual rating after 10 days; for Kochia plant response rating: Test C, preemergence, 125 g ai/ha
Method in brief: as §1

ragweed [19] = experiment: Test C postemergence; type: in vivo, Ambrosia artemisiifolia; conditions: 10 days
Method in brief: as §1

corn [20] = experiment: Test C preemergence; type: in vivo, Zea mays; conditions: 0 to 100 scale (0 no effect, 100 complete control); for Plant response rating, Corn: Preemergence, 500 g ai/ha, visual rating after 10 days; for Corn plant response rating: Test C, preemergence, 125 g ai/ha
Method in brief: as §1

blackgrass [21] = experiment: Test C postemergence; type: in vivo, Alopecurus myosuroides; conditions: 10 days
Method in brief: as §1

barnyardgrass [22] = experiment: Test D flooded paddy test; type: in vivo, Echinochloa crus-galli; conditions: 250 g ai/ha, applied to paddy water, visual rating after 13 to 14 days, scale 0 to 100 (0 no effect, 100 complete control)
Method in brief: as §2

kochia [23] = experiment: Test C postemergence; type: in vivo, Bassia scoparia; conditions: 10 days
Method in brief: as §1

[24] = 125 g ai/ha, postemergence, 0 to 100 scale, 0 no effect, 100 complete control
[25] = Postemergence, 500 g ai/ha, visual 0 to 100 scale (0 no effect, 100 complete control)

CCc1ncn(-c2cc3c(c(C(=O)N4C[C@H](C)Oc5c(Cl)cccc54)c2)OCCO3)n1 [Compound 155]
Plant response rating, Blackgrass (blackgrass [1]): 90
Blackgrass plant response rating (blackgrass [1]): 50
Plant response rating, Soybean (soybean [2]; [24]): 100
Plant response rating, Soybean (soybean [2]; [25]): 100
Plant response rating, Horseweed (horseweed; [24]): 70
Plant response rating, Horseweed (horseweed; [25]): 70
Plant response rating, Rice (Flood) (rice): 15
Barnyardgrass plant response rating (barnyardgrass [3]): 90
Plant response rating, Barnyardgrass (barnyardgrass [3]): 100
Plant response rating, Sedge, Umbrella (Flood) (sedge, umbrella): 98
Plant response rating, Corn (corn [4]; [24]): 40
Plant response rating, Corn (corn [4]; [25]): 90
Plant response rating, Soybean (soybean [5]): 100
Soybean plant response rating (soybean [5]): 70
Plant response rating, Pigweed, Palmer (pigweed, palmer [6]): 100
Pigweed, Palmer plant response rating (pigweed, palmer [6]): 100
Plant response rating, Galium (galium; [24]): 100
Plant response rating, Galium (galium; [25]): 100
Plant response rating, Foxtail, Green (green foxtail [7]): 100
Foxtail, Green plant response rating (green foxtail [7]): 100
Plant response rating, Oat, Wild (oat, wild [8]; [24]): 20
Plant response rating, Oat, Wild (oat, wild [8]; [25]): 50
Plant response rating, Ryegrass, Italian (ryegrass, Italian [9]): 90
Ryegrass, Italian plant response rating (ryegrass, Italian [9]): 70
Plant response rating, Wheat (wheat [10]): 70
Wheat plant response rating (wheat [10]): 20
Plant response rating, Ducksalad (Flood) (ducksalad): 60
Plant response rating, Pigweed, Palmer (pigweed, palmer [11]; [24]): 90
Plant response rating, Pigweed, Palmer (pigweed, palmer [11]; [25]): 100
Plant response rating, Barnyardgrass (barnyardgrass [12]; [24]): 90
Plant response rating, Barnyardgrass (barnyardgrass [12]; [25]): 90
Plant response rating, Wheat (wheat [13]; [24]): 60
Plant response rating, Wheat (wheat [13]; [25]): 80
Plant response rating, Ragweed (ragweed [14]): 100
Ragweed plant response rating (ragweed [14]): 60
Plant response rating, Foxtail, Green (green foxtail [15]; [24]): 90
Plant response rating, Foxtail, Green (green foxtail [15]; [25]): 90
Plant response rating, Ryegrass, Italian (ryegrass, Italian [16]; [24]): 70
Plant response rating, Ryegrass, Italian (ryegrass, Italian [16]; [25]): 100
Plant response rating, Oat, Wild (oat, wild [17]): 50
Oat, Wild plant response rating (oat, wild [17]): 30
Plant response rating, Kochia (kochia [18]): 90
Kochia plant response rating (kochia [18]): 80
Plant response rating, Ragweed (ragweed [19]; [24]): 100
Plant response rating, Ragweed (ragweed [19]; [25]): 100
Plant response rating, Corn (corn [20]): 50
Corn plant response rating (corn [20]): 10
Plant response rating, Blackgrass (blackgrass [21]; [24]): 90
Plant response rating, Blackgrass (blackgrass [21]; [25]): 100
Plant response rating, Barnyardgrass (Flood) (barnyardgrass [22]): 20
Plant response rating, Kochia (kochia [23]; [24]): 80
Plant response rating, Kochia (kochia [23]; [25]): 90

Cc1ccc(-n2cnc(C(C)C)n2)cc1C(=O)N1C[C@H](C)Oc2c1cccc2C(F)(F)F [Compound 170]
Plant response rating, Blackgrass (blackgrass [1]): 80
Blackgrass plant response rating (blackgrass [1]): 50
Plant response rating, Soybean (soybean [2]; [24]): 100
Plant response rating, Soybean (soybean [2]; [25]): 100
Plant response rating, Horseweed (horseweed; [24]): 80
Plant response rating, Horseweed (horseweed; [25]): 90
Plant response rating, Rice (Flood) (rice): 15
Plant response rating, Barnyardgrass (barnyardgrass [3]): 100
Barnyardgrass plant response rating (barnyardgrass [3]; Test C): 90
Plant response rating, Sedge, Umbrella (Flood) (sedge, umbrella): 95
Plant response rating, Corn (corn [4]; [24]): 30
Plant response rating, Corn (corn [4]; [25]): 50
Plant response rating, Soybean (soybean [5]): 100
Soybean plant response rating (soybean [5]): 70
Plant response rating, Pigweed, Palmer (pigweed, palmer [6]): 100
Pigweed, Palmer plant response rating (pigweed, palmer [6]): 100
Plant response rating, Galium (galium; [24]): 100
Plant response rating, Galium (galium; [25]): 100
Plant response rating, Foxtail, Green (green foxtail [7]): 100
Foxtail, Green plant response rating (green foxtail [7]): 100
Plant response rating, Oat, Wild (oat, wild [8]; [24]): 20
Plant response rating, Oat, Wild (oat, wild [8]; [25]): 60
Plant response rating, Ryegrass, Italian (ryegrass, Italian [9]): 100
Ryegrass, Italian plant response rating (ryegrass, Italian [9]): 80
Plant response rating, Wheat (wheat [10]): 90
Wheat plant response rating (wheat [10]): 50
Plant response rating, Ducksalad (Flood) (ducksalad): 55
Plant response rating, Pigweed, Palmer (pigweed, palmer [11]; [24]): 100
Plant response rating, Pigweed, Palmer (pigweed, palmer [11]; [25]): 100
Plant response rating, Barnyardgrass (barnyardgrass [12]; [24]): 20
Plant response rating, Barnyardgrass (barnyardgrass [12]; [25]): 50
Plant response rating, Wheat (wheat [13]; [24]): 10
Plant response rating, Wheat (wheat [13]; [25]): 50
Plant response rating, Ragweed (ragweed [14]): 70
Ragweed plant response rating (ragweed [14]): 20
Plant response rating, Foxtail, Green (green foxtail [15]; [24]): 20
Plant response rating, Foxtail, Green (green foxtail [15]; [25]): 90
Plant response rating, Ryegrass, Italian (ryegrass, Italian [16]; [24]): 60
Plant response rating, Ryegrass, Italian (ryegrass, Italian [16]; [25]): 90
Plant response rating, Oat, Wild (oat, wild [17]): 80
Oat, Wild plant response rating (oat, wild [17]): 60
Plant response rating, Kochia (kochia [18]): 100
Kochia plant response rating (kochia [18]): 90
Plant response rating, Ragweed (ragweed [19]; [24]): 70
Plant response rating, Ragweed (ragweed [19]; [25]): 90
Plant response rating, Corn (corn [20]): 20
Corn plant response rating (corn [20]): 20
Plant response rating, Blackgrass (blackgrass [21]; [24]): 30
Plant response rating, Blackgrass (blackgrass [21]; [25]): 80
Plant response rating, Barnyardgrass (Flood) (barnyardgrass [22]): 0
Plant response rating, Kochia (kochia [23]; [24]): 80
Plant response rating, Kochia (kochia [23]; [25]): 100
